Experiment [1] has as its target Protein cereblon/Eukaryotic peptide chain release factor GTP-binding subunit ERF3A (Homo sapiens) (UniProt Q96SW2+P15170). The experiment can be described thus: PROTAC activity at CRBN/GSPT1 in human SEM cells assessed as decrease in GSPT1 level at 2 uM measured upto 24 hrs by immunoblot analysis. The experiment is classed as cell-based. (In general: In western blotting, separated proteins are transferred to a membrane and probed.)

Experiment [2] concerns the target T1, Protein cereblon/Histone-lysine N-methyltransferase NSD2 (Homo sapiens) (UniProt O96028+Q96SW2). The experiment can be described thus: PROTAC activity at CRBN/NSD2 in human SEM cells assessed as induction of NSD2 degradation at 2 uM measured upto 24 hrs by immunoblot analysis. The experiment is classed as cell-based.
The target of experiment [3] is T1, Protein cereblon/Histone-lysine N-methyltransferase NSD2 (Homo sapiens). The experiment in a line: PROTAC activity at CRBN/NSD2 in human RPMI 8402 cells assessed as induction of NSD2 degradation at 2 uM measured after 12 to 24 hrs by immunoblot analysis. As to conditions: time 12-24 hrs. The experiment is classed as cell-based.
Experiment [4] addresses T2, Histone-lysine N-methyltransferase NSD2 (Homo sapiens, UniProt O96028).
T2 sequence (O96028 whole entry): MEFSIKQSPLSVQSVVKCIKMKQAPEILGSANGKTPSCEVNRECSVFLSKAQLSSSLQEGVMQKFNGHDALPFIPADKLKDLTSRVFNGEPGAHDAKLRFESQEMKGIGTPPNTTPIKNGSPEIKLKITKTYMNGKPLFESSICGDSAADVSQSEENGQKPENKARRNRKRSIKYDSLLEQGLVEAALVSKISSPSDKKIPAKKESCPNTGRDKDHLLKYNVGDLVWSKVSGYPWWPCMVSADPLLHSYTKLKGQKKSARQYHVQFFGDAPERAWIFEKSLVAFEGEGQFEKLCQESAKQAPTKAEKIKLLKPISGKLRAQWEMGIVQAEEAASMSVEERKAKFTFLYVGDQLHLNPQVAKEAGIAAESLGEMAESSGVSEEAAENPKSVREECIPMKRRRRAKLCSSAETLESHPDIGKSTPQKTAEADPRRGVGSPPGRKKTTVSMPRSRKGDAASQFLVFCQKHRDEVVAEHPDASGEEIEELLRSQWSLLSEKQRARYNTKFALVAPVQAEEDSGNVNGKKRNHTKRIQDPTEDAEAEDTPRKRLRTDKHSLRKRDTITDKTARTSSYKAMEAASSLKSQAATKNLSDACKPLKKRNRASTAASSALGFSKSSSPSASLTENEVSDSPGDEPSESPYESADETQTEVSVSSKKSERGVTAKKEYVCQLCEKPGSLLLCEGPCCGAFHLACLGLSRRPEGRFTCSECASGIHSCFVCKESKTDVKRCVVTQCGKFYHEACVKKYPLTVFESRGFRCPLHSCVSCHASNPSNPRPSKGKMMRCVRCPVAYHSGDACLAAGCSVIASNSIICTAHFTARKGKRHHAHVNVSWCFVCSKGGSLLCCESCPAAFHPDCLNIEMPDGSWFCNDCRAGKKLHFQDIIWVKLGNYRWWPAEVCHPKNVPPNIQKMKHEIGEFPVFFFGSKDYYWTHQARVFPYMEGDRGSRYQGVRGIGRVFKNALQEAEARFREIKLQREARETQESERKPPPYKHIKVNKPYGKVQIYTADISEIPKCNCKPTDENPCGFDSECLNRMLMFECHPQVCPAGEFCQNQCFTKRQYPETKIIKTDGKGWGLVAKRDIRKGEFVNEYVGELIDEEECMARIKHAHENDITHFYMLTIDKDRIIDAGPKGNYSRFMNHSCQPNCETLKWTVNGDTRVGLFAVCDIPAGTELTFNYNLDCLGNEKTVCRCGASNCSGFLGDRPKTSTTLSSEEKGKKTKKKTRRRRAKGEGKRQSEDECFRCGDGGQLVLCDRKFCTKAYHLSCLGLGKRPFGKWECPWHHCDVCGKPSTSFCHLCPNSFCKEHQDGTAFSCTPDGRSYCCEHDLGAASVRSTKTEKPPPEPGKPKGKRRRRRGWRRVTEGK
The experiment can be described thus: Induction of NSD2 degradation in HEK293FT cells measured after 48 hrs. The format is cell-based.

Experiment [5] addresses T1, Protein cereblon/Histone-lysine N-methyltransferase NSD2 (Homo sapiens). The experiment can be described thus: PROTAC activity at CRBN/NSD2 in human SEM cells assessed as induction of NSD2 degradation at 2 uM measured after 12 to 24 hrs by immunoblot analysis. The format is cell-based. The following applies: time 12-24 hrs.
The target is the same in experiment [6]. The experiment can be described thus: PROTAC activity at CRBN/NSD2 in human SEM cells assessed as induction of NSD2 degradation at 0.5 to 2 uM measured after 24 hrs by immunoblot analysis. The following applies: dose 0.5-2 µM. The experiment is classed as cell-based.
Experiment [7] has the same target. The experiment in a line: PROTAC activity at CRBN/NSD2 in human RPMI 8402 cells assessed as induction of NSD2 degradation at 0.5 to 2 uM measured after 24 hrs by immunoblot analysis. The following applies: dose 0.5-2 µM. The experiment is classed as cell-based.
Experiment [8] relates to RPMI 8402. The experiment in a line: Inhibition of colony formation in human RPMI 8402 cells at 2 uM administered every three days for 30 days by iodonitrotetrazolium chloride staining based microscopy analysis. The format is functional, cell-based. As to conditions: time 30.0 day.

The source made the active and inactive calls. The calls are words filed in the database; no cut-off is given here.

T1 sequence (Q96SW2 whole entry, looked up, one chain of several): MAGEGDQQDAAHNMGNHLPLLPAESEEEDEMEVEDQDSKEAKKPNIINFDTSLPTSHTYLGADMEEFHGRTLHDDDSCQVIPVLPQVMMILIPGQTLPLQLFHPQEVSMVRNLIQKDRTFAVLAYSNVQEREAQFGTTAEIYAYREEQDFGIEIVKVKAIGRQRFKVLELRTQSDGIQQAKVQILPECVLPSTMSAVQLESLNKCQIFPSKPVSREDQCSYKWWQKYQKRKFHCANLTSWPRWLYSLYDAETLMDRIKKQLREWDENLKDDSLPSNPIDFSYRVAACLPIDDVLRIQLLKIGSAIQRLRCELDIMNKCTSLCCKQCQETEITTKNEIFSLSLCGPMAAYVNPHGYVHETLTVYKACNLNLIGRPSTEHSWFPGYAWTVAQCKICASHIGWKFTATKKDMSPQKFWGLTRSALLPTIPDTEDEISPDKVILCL
Sequence of Protein cereblon/Eukaryotic peptide chain release factor GTP-binding subunit ERF3A (Homo sapiens) (P15170 whole entry, looked up): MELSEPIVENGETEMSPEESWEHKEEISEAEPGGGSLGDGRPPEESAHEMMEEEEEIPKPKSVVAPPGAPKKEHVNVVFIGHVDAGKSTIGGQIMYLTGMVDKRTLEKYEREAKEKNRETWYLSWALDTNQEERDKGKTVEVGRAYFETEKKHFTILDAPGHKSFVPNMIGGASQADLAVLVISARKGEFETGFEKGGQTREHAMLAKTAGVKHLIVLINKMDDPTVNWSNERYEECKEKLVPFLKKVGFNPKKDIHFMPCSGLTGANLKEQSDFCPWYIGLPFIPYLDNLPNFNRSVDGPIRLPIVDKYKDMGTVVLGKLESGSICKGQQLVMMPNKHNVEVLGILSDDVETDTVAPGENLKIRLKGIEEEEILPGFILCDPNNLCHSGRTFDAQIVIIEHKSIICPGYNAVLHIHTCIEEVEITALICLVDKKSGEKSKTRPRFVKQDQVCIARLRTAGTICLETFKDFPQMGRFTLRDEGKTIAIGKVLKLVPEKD
Sequence of Protein cereblon/Eukaryotic peptide chain release factor GTP-binding subunit ERF3A (Homo sapiens) (Q96SW2 whole entry, looked up): as the sequence (Q96SW2 whole entry, looked up, one chain of several) above

On to `CC(C)N(Cc1ccc(C(=O)Nc2ccc(C(=O)NC3CCN(c4ccc5c(c4)C(=O)N(C4CCC(=O)NC4=O)C5=O)CC3)cc2)cc1)C(=O)c1ccc2c(c1)OCC(=O)N2` (stereo unspecified), for which the result in experiment [1] was Active. The outcome in experiment [2] was inactive.

A word on the DC50: it is the concentration giving 50% degradation. Low readings indicate degradation at low concentration, high ones degradation only at high concentration. As to `O=C(CNc1cccc2c1C(=O)N(C1CCC(=O)NC1=O)C2=O)NCCCOc1ccc(NC(=O)c2ccc(CN(C(=O)c3ccc4c(c3)OCC(=O)N4)C3CC3)cc2)nc1` (stereo unspecified), the outcome in experiment [3], in experiment [5], in experiment [6] and in experiment [7] was inactive. The half-maximal degradation concentration (DC50) in experiment [4] is 5.2 µM.

With `NCCCCCCNC(=O)c1ccc(NC(=O)c2ccc(CN(C(=O)c3ccc4c(c3)OCC(=O)N4)C3CC3)cc2)cc1`, the result in experiment [3], in experiment [5], in experiment [6] and in experiment [7] was inactive.

Regarding `CN1C(=O)CCC(N2C(=O)c3ccc(N4CCC(NC(=O)c5ccc(NC(=O)c6ccc(CN(C(=O)c7ccc8c(c7)OCC(=O)N8)C7CC7)cc6)cc5)CC4)cc3C2=O)C1=O` (stereo unspecified), the inhibition entry in experiment [8] was “inactive”. The outcome in experiment [3], in experiment [5], in experiment [6] and in experiment [7] was inactive.
